According to patent publication US20260226065A1, “SUBSTITUTED BENZENE COMPOUND” (DAIICHI SANKYO COMPANY, LIMITED, priority 2023, published 2026):

Biological target: T1, NLRP3 inflammasome (Homo sapiens, UniProt Q96P20)
T1 construct: endogenous in cells; host or cells: THP-1 (human monocyte-derived), PMA-differentiated, Nigericin-stimulated
Assay: In vitro IL-1β production test (PMA-differentiated THP-1 cells, Nigericin stimulation, AlphaLISA)
Type: cell-based
Details: inhibition of IL-1β production; THP-1 cells differentiated with 200 nM PMA; 0.015 mM Nigericin; 2 hours
Protocol: Human monocyte-derived THP-1 cells were cultured for one day in 10% bovine serum-containing RPMI-1640 medium (Thermo #A10491-01) supplemented with 200 nM phorbol 12-myristate 13-acetate (PMA, Sigma #P8139) to induce differentiation.
NLRP3 inflammasome was induced by replacing the culture medium with bovine serum-free RPMI-1640 medium supplemented with 0.015 mM Nigericin (Sigma #SML1779) and the test compound of known concentrations.
After 2 hours, the culture medium supernatant was collected and the IL-1β protein concentration was measured using the AlphaLISA (registered trademark) assay (PerkinElmer #AL220C).
The IL-1β concentration without the addition of the test compound and with Nigericin stimulation was set as 0% inhibitory activity, and the IL-1β concentration without Nigericin stimulation was set as 100% inhibitory activity, and the inhibition rate (% inhibition) of the test compound at each added concentration was calculated.
The % inhibition value was subjected to sigmoid fitting using a logistic regression model to calculate the 50% inhibitory concentration (IC50 value).

T1 sequence (Q96P20 whole entry): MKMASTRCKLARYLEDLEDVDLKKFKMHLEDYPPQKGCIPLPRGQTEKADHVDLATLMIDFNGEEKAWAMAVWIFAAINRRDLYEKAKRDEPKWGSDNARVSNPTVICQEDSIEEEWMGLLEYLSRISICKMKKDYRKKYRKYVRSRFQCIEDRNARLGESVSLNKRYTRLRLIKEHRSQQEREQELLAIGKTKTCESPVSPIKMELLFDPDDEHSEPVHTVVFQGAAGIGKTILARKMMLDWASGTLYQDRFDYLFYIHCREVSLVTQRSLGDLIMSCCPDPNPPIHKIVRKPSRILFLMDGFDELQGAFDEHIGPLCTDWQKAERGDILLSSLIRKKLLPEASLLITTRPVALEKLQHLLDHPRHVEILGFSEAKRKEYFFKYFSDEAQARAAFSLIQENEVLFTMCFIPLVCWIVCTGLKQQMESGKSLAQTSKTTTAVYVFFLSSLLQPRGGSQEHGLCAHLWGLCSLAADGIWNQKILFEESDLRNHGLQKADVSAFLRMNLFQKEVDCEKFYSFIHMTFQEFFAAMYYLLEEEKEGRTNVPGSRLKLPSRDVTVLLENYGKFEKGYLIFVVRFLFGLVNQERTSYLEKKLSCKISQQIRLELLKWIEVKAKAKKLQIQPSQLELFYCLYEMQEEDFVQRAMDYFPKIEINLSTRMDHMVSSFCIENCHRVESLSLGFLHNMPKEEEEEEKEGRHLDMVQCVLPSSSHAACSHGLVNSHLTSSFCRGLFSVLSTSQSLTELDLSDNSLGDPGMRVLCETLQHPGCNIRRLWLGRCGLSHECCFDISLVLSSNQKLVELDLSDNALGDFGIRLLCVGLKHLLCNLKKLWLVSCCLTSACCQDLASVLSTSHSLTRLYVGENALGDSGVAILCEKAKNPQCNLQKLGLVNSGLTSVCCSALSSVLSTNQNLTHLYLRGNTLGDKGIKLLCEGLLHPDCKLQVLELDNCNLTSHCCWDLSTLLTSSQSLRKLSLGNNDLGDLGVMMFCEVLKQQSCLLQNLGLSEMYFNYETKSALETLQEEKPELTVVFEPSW

Row | SMILES | IC50
1 | Cc1cc(C(F)(F)F)cc(O)c1-c1cc2c(nn1)N([C@@H]1CCCN(C3CCOC3)C1)CC2 (mixture of isomers) [Example 57, 3-methyl-2-{7-[(3R)-1-(tetrahydrofuran-3-yl)piperidin-3-yl]-6,7-dihydro-5H-pyrrolo[2,3-c]pyridazin-3-yl}-5-(trifluoromethyl)phenol] | 57.2 nM
2 | CCN1C[C@H](F)C[C@@H](N2CCc3cc(-c4c(C)cc(C(F)(F)F)cc4O)nnc32)C1 [Example 66, 2-{7-[(3R,5R)-1-ethyl-5-fluoropiperidin-3-yl]-6,7-dihydro-5H-pyrrolo[2,3-c]pyridazin-3-yl}-3-methyl-5-(trifluoromethyl)phenol] | 16.4 nM
3 | Cc1cc(C(F)(F)F)cc(O)c1-c1cc2scc(C3CCCN(C)C3)c2nn1 (racemic) [Example 95, 3-methyl-2-[7-(1-methylpiperidin-3-yl)thieno[3,2-c]pyridazin-3-yl]-5-(trifluoromethyl)phenol] | 19.7 nM
4 | CCN1CCC[C@@H](N2CCc3cc(-c4c(C)cc(OC(F)(F)F)cc4O)nnc32)C1 [Example 23, 2-{7-[(3R)-1-ethylpiperidin-3-yl]-6,7-dihydro-5H-pyrrolo[2,3-c]pyridazin-3-yl}-3-methyl-5-(trifluoromethoxy) phenol] | 11.8 nM
5 | Cc1cc(C(F)(F)F)cc(O)c1-c1cc2c(nn1)N([C@@H]1CCCN(CC3CC3)C1)CC2 [Example 61, 2-{7-[(3R)-1-(cyclopropylmethyl)piperidin-3-yl]-6,7-dihydro-5H-pyrrolo[2,3-c]pyridazin-3-yl}-3-methyl-5-(trifluoromethyl)phenol] | 25.3 nM
6 | Cc1cc(C(F)(F)F)cc(O)c1-c1ccc(CC2CCCN(C)C2)nn1 (racemic) [Example 93, 3-methyl-2-{6-[(1-methylpiperidin-3-yl)methyl]pyridazin-3-yl}-5-(trifluoromethyl)phenol] | 30.1 nM
7 | Cc1cc(C(F)(F)F)cc(O)c1-c1cc2cccc([C@@H]3CCCN(C)C3)c2nn1 (single isomer, unassigned) [Example 96, 3-methyl-2-{8-[(3R or 3S)-1-methylpiperidin-3-yl]cinnolin-3-yl}-5-(trifluoromethyl)phenol] | 11.5 nM
8 | CCCN1CCC[C@@H](N2CCc3cc(-c4c(C)cc(C(F)(F)F)cc4O)nnc32)C1 [Example 14, 3-methyl-2-{7-[(3R)-1-propylpiperidin-3-yl]-6,7-dihydro-5H-pyrrolo[2,3-c]pyridazin-3-yl}-5-(trifluoromethyl)phenol] | 7.87 nM
9 | Cc1cc(C(F)(F)F)cc(O)c1-c1cc2c(nn1)N([C@@H]1C[C@@H](F)CN(C)C1)CC2 [Example 60, 2-{7-[(3R,5R)-5-fluoro-1-methylpiperidin-3-yl]-6,7-dihydro-5H-pyrrolo[2,3-c]pyridazin-3-yl}-3-methyl-5-(trifluoromethyl)phenol] | 74.8 nM
10 | Cc1cc(C(F)(F)F)cc(O)c1-c1cc2c(nn1)N([C@@H]1CC[C@@H]3CC[C@H]1N3C)CC2 (single isomer, unassigned) [Example 19, 3-methyl-2-{7-[(1R,2R,5S or 1,2S,5R)-8-methyl-8-azabicyclo[3.2.1]octan-2-yl]-6,7-dihydro-5H-pyrrolo[2,3-c]pyridazin-3-yl}-5-(trifluoromethyl)phenol] | 9.99 nM

Continued, values first:

Row | IC50 | SMILES
11 | 14.4 nM | Cc1cc(C(F)(F)F)cc(O)c1-c1cc2c(nn1)N([C@@H]1CCCN(C)C1)C(C)C2 (mixture of isomers) [Example 30, 3-methyl-2-{6-methyl-7-[(3R)-1-methylpiperidin-3-yl]-6,7-dihydro-5H-pyrrolo[2,3-c]pyridazin-3-yl}-5-(trifluoromethyl)phenol]
12 | 79.6 nM | Cc1cc(C(F)(F)F)cc(O)c1-c1cc2c(nn1)c(C1CCCN(C)C1)cn2C (racemic) [Example 94, 3-methyl-2-[5-methyl-7-(1-methylpiperidin-3-yl)-5H-pyrrolo[3,2-c]pyridazin-3-yl]-5-(trifluoromethyl)phenol]
13 | 22.4 nM | Cc1cc(OC(F)F)cc(O)c1-c1cc2c3c(n([C@H]4C[C@@](C)(O)C4)c2nn1)CCC3 [Example 80, 5-(difluoromethoxy)-2-{8-[(1s,3s)-3-hydroxy-3-methylcyclobutyl]-5,6,7,8-tetrahydrocyclopenta[4,5]pyrrolo[2,3-c]pyridazin-3-yl}-3-methylphenol]
14 | 40.1 nM | Cc1cc(C(F)(F)F)cc(O)c1-c1cc2cc(C)n([C@H]3C[C@@](C)(O)C3)c2nn1 [Example 87, 2-{7-[(1s,3s)-3-hydroxy-3-methylcyclobutyl]-6-methyl-7H-pyrrolo[2,3-c]pyridazin-3-yl}-3-methyl-5-(trifluoromethyl)phenol]
15 | 236 nM | Cc1c(F)c(C(F)(F)F)cc(O)c1-c1cc2c(C)cn([C@H]3C[C@@](C)(O)C3)c2nn1 [Example 50, 4-fluoro-2-{7-[(1s,3s)-3-hydroxy-3-methylcyclobutyl]-5-methyl-7H-pyrrolo[2,3-c]pyridazin-3-yl}-3-methyl-5-(trifluoromethyl)phenol]
16 | 55.8 nM | Cc1cc(C(F)(F)F)cc(O)c1-c1cc2c(nn1)N([C@@H]1CCCN(CC(C)(C)O)C1)CC2 [Example 58, 2-{7-[(3R)-1-(2-hydroxy-2-methylpropyl)piperidin-3-yl]-6,7-dihydro-5H-pyrrolo[2,3-c]pyridazin-3-yl}-3-methyl-5-(trifluoromethyl)phenol]
17 | 125 nM | Cc1cc(F)cc(O)c1-c1cc2c(C)cn([C@H]3C[C@@](C)(O)C3)c2nn1 [Example 91, 5-fluoro-2-{7-[(1s,3s)-3-hydroxy-3-methylcyclobutyl]-5-methyl-7H-pyrrolo[2,3-c]pyridazin-3-yl}-3-methylphenol]
18 | 14 nM | CCN1CCC[C@@H](n2cc(OC)c3cc(-c4c(C)cc(C(F)(F)F)cc4O)nnc32)C1 [Example 77, 2-{7-[(3R)-1-ethylpiperidin-3-yl]-5-methoxy-7H-pyrrolo[2,3-c]pyridazin-3-yl}-3-methyl-5-(trifluoromethyl)phenol]
19 | 67.6 nM | Cc1cc(C(F)(F)F)cc(O)c1-c1cc2ccn([C@H]3C[C@@](C)(CO)C3)c2nn1 [Example 7, 2-{7-[(1s,3s)-3-(hydroxymethyl)-3-methylcyclobutyl]-7H-pyrrolo[2,3-c]pyridazin-3-yl}-3-methyl-5-(trifluoromethyl)phenol]
20 | 413 nM | Cc1cc(C(F)(F)F)cc(O)c1-c1cc2cnn(C3CCCN(C)C3)c2nn1 (racemic) [Example 31, 3-methyl-2-[1-(1-methylpiperidin-3-yl)-1H-pyrazolo[3,4-c]pyridazin-5-yl]-5-(trifluoromethyl)phenol]
21 | 101 nM | Cc1cc(C(F)(F)F)c(F)c(O)c1-c1cc2c(C)cn([C@H]3C[C@@](C)(O)C3)c2nn1 [Example 48, 2-fluoro-6-{7-[(1s,3s)-3-hydroxy-3-methylcyclobutyl]-5-methyl-7H-pyrrolo[2,3-c]pyridazin-3-yl}-5-methyl-3-(trifluoromethyl)phenol]
22 | 95.8 nM | Cc1cc(C(F)(F)F)cc(O)c1-c1cc2c(C(F)(F)F)cn([C@H]3C[C@@](C)(O)C3)c2nn1 [Example 59, 2-{7-[(1s,3s)-3-hydroxy-3-methylcyclobutyl]-5-(trifluoromethyl)-7H-pyrrolo[2,3-c]pyridazin-3-yl}-3-methyl-5-(trifluoromethyl)phenol]
23 | 22.1 nM | Cc1cc2c(c(O)c1-c1cc3c(C)cn([C@H]4C[C@@](C)(O)C4)c3nn1)CCC2 [Example 43, 5-{7-[(1s,3s)-3-hydroxy-3-methylcyclobutyl]-5-methyl-7H-pyrrolo[2,3-c]pyridazin-3-yl}-6-methyl-2,3-dihydro-1H-inden-4-ol]
